Laboratory results: US9023789B2, “Amylin analogs and pharmaceutical compositions thereof” (Novo Nordisk A/S, priority 2012, dated 2015)
Read-outs that look alike come from different tables or passages of the source.

Legend:
[1] = target: T1, human calcitonin receptor (Homo sapiens, UniProt P30988); assay: ASSAY (VII) binding to the human calcitonin receptor (SPA, 125I-Calcitonin); conditions: read-out: hCTR bind IC50;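 note: cell membranes (35 ng/µL) combined with SPA beads in 40 µL of pH 7.4 Hepes buffer, 384-well format, signal counted on a TopCounter instrument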
T1 construct: expressed in transfected cells
T1 sequence (P30988 25-474): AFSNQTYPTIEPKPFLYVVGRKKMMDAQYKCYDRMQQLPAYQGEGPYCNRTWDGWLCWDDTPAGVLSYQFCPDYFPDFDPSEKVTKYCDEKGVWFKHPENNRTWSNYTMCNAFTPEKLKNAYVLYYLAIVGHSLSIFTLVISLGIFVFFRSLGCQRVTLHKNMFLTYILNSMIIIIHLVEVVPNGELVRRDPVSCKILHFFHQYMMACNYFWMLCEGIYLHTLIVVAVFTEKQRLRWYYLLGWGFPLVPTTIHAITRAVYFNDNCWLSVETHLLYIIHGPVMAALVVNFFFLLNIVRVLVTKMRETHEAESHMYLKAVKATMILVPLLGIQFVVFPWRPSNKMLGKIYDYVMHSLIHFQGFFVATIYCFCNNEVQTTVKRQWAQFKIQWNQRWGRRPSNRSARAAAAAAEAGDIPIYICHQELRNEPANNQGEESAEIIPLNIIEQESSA

[2] = target: T2, rat amylin receptor (rat calcitonin receptor + rat RAMP 3) (Rattus norvegicus, UniProt P32214+Q9JJ73); assay: ASSAY (VI) binding to the rat amylin receptor; conditions: for IC50: binding to rat amylin receptor, read-out: rAmylin-R bind IC50
T2 construct: expressed in transfected cells; host or cells: BHK tk'ts 13 (transient, FuGENE 6), membranes
T2 sequence (P32214 25-479 isoform P32214-2 limits assumed): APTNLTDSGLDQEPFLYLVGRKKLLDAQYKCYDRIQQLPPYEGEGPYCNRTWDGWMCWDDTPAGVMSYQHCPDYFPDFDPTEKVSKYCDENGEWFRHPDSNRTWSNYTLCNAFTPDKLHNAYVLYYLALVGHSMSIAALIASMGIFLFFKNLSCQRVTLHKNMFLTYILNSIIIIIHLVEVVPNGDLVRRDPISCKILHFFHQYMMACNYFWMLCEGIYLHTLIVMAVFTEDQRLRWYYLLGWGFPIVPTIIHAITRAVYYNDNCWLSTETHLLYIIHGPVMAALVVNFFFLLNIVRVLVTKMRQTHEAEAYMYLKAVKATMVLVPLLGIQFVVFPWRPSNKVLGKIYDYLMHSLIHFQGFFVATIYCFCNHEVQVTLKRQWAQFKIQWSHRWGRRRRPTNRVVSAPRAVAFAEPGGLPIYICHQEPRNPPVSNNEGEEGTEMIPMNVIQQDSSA
T2 sequence (Q9JJ73 23-147 partner): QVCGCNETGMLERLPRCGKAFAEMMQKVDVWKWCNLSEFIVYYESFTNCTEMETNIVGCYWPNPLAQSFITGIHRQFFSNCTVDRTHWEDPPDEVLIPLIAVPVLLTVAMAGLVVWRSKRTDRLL
Outline: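 The cell-membrane assay assessed binding at the rat amylin receptor. BHK tk′ts 13 cells were transfected transiently with rat calcitonin receptor, with FuGENE® 6 (Roche) as the transfection reagent, used per the manufacturer's recommendations. Approximately 48 hours after transfection the cells were harvested, and membranes were prepared for measuring binding.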

[3] = target: T3, human amylin 3(a) receptor (human calcitonin receptor + RAMP-3) in BHK570 cells (Homo sapiens, UniProt O60896+P30988); assay: ASSAY (II)a functional assay, human amylin receptor (CRE luciferase); format: cell-based
T3 construct: expressed in transfected cells
Outline: (§1)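 Functional agonism was measured by CRE-luciferase reporter luminescence in BHK cells bearing calcitonin receptor, or calcitonin receptor plus RAMP-3 as the amylin 3(a) receptor. Stimulation lasted 3 hours at 37° C.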

[4] = target: T4, human calcitonin (a) receptor in BHK570 cells (Homo sapiens, UniProt P30988); assay: ASSAY (II)a functional assay, human calcitonin receptor (CRE luciferase); format: cell-based; conditions: read-out: hCTR funct. EC50
T4 construct: expressed in transfected cells
T4 sequence (P30988 25-474): T1 sequence (P30988 25-474)
Outline: as §1

[5] = ASSAY (IV) determination of solubility; format: physicochemical
Outline: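 Solubility measured by UPLC of supernatant after centrifugation, following 18 h at room temperature. Peptide ([…] in water) was diluted 1:1 into 100 mM glycylglycine (pH 3.0, 4.0, 5.0) or bistrispropane (pH 6.0-8.0).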

[6] = Table 7, rat binding selectivity, rCTR IC50 / rAmylin-R IC50
[7] = Table 7a (preferred compounds), rat binding selectivity, rCTR IC50 / rAmylin-R IC50
[8] = ratio of rCTR bind IC50 to rAmylin-R bind IC50
[9] = hCTR funct. EC50 divided by hAmylin-R funct. EC50
[10] = human functional selectivity: hCTR funct. EC50 / hAmylin-R funct. EC50

T3 sequence (O60896 24-148, one chain of several): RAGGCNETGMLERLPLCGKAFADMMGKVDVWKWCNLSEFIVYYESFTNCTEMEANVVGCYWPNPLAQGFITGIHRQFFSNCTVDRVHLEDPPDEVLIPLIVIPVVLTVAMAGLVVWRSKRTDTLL

| IC50 [1] [nM] | IC50 ([2]; Table 7) [nM] | Ratio rCT/rAmylin binding [2, 6] | Ratio rCT/rAmylin binding [2, 7] | Ratio rCT/rAmylin binding [2, 8] | Ratio hCT/hAmylin funct. [3, 9] | Ratio hCT/hAmylin funct. ([3]; hCTR funct. EC50 over hAmylin-R funct. EC50) | EC50 ([3]; human amylin receptor functional potency, assay (II), read-out: hAmylin-R funct. EC50) [nM] | Ratio hCT/hAmylin funct. [3, 10] | EC50 [4] [nM] | solubility at 18 h ([5]; bistrispropane buffer, pH 6.5, read-out: Solubility pH 6.5 Concentration) [µM] | solubility at 18 h ([5]; bistrispropane buffer, pH 7.5, read-out: Solubility pH 7.5 Concentration) [µM] | solubility at 18 h ([5]; bistrispropane buffer, pH 6.0, read-out: Solubility pH 6.0 Concentration) [µM] | solubility at 18 h ([5]; bistrispropane buffer, pH 7.0, read-out: Solubility pH 7.0 Concentration) [µM] | solubility at 18 h ([5]; bistrispropane buffer, pH 8.0, read-out: Solubility pH 8.0 Concentration) [µM] | solubility at 18 h ([5]; glycylglycine buffer, pH 3.0, read-out: Solubility pH 3.0 Concentration) [µM] | solubility at 18 h ([5]; glycylglycine buffer, pH 4.0, read-out: Solubility pH 4.0 Concentration) [µM] | solubility at 18 h ([5]; glycylglycine buffer, pH 5.0, read-out: Solubility pH 5.0 Concentration) [µM] | SMILES |
| --- | --- | --- | --- | --- | --- | --- | --- | --- | --- | --- | --- | --- | --- | --- | --- | --- | --- | --- |
| 21.3 | 1.37 | 54.0 | 54.0 | 54.0 | 16.7 | 16.7 | 0.26 | 16.7 | 4.35 | – | – | – | – | – | – | – | – | CC[C@H](C)[C@H](NC(=O)[C@H](C)NC(=O)CNC(=O)[C@H](Cc1ccccc1)NC(=O)[C@H](CC(N)=O)NC(=O)[C@@H]1CCCN1C(=O)[C@H](CO)NC(=O)[C@H](CO)NC(=O)[C@H](Cc1c[nH]cn1)NC(=O)[C@H](CCCNC(=N)N)NC(=O)[C@H](CC(C)C)NC(=O)[C@H](Cc1ccccc1)NC(=O)[C@H](CC(N)=O)NC(=O)[C@H](C)NC(=O)[C@H](CC(C)C)NC(=O)[C@H](CCCNC(=N)N)NC(=O)[C@H](CCC(N)=O)NC(=O)[C@@H](NC(=O)[C@H](C)NC(=O)[C@@H]1CSSC[C@H](NC(=O)[C@@H](N)CCCCNC(=O)COCCOCCNC(=O)CC[C@H](NC(=O)CCCCCCCCCCCCCCCCCCC(=O)O)C(=O)O)C(=O)N[C@@H](CC(N)=O)C(=O)N[C@@H]([C@@H](C)O)C(=O)N[C@@H](C)C(=O)N[C@@H]([C@@H](C)O)C(=O)N1)[C@@H](C)O)C(=O)N1CCC[C@H]1C(=O)N[C@@H](CO)C(=O)N[C@@H](CO)C(=O)N[C@H](C(=O)N[C@@H](CC(N)=O)C(=O)N[C@H](C(=O)NCC(=O)N[C@@H](CO)C(=O)N[C@@H](CC(N)=O)C(=O)N[C@H](C(=O)N[C@@H](Cc1ccc(O)cc1)C(N)=O)[C@@H](C)O)C(C)C)[C@@H](C)O [Example 41] |
| – | 0.246 | 74.1 | 74.1 | 74.1 | 7.2 | – | – | 7.2 | 0.236 | ≥ 200 | ≥ 200 | ≥ 200 | ≥ 200 | ≥ 200 | ≥ 200 | ≥ 200 | ≥ 200 | CC[C@H](C)[C@H](NC(=O)[C@H](C)NC(=O)CNC(=O)[C@H](Cc1ccccc1)NC(=O)[C@H](CC(N)=O)NC(=O)[C@@H]1CCCN1C(=O)[C@H](CO)NC(=O)[C@H](CO)NC(=O)[C@H](Cc1c[nH]cn1)NC(=O)[C@H](CCCNC(=N)N)NC(=O)[C@H](CC(C)C)NC(=O)[C@H](Cc1ccccc1)NC(=O)[C@H](Cc1c[nH]cn1)NC(=O)[C@H](C)NC(=O)[C@H](CC(C)C)NC(=O)[C@H](CCCNC(=N)N)NC(=O)[C@H](CCC(N)=O)NC(=O)[C@@H](NC(=O)[C@H](C)NC(=O)[C@@H]1CSSC[C@H](NC(=O)[C@@H](N)CCCCNC(=O)COCCOCCNC(=O)CCCCCCCCCCCCCCCCCCC(=O)O)C(=O)N[C@@H](CC(N)=O)C(=O)N[C@@H]([C@@H](C)O)C(=O)N[C@@H](C)C(=O)N[C@@H]([C@@H](C)O)C(=O)N1)[C@@H](C)O)C(=O)N1CCC[C@H]1C(=O)N[C@@H](CO)C(=O)N[C@@H](CO)C(=O)N[C@H](C(=O)N[C@@H](CC(N)=O)C(=O)N[C@H](C(=O)NCC(=O)N[C@@H](CO)C(=O)N[C@@H](CC(N)=O)C(=O)N[C@H](C(=O)N[C@@H](Cc1ccc(O)cc1)C(N)=O)[C@@H](C)O)C(C)C)[C@@H](C)O [Example 90] |
